We go through 11 molecules from ChEMBL document CHEMBL1201862, “PubChem BioAssay data set” (2004).

Test systems include SK-OV-3; SK-MEL-5; SF-268; KM-20L2; TK-10; SK-MEL-2; XF498; ACHN; RPMI-8226; M14; SR; HOP-92; MCF7; SNB-78; NCI/ADR-RES; DMS-114; HOP-18; M19-MEL; DU-145; 786-0.
Experiment in all cases: inhibition of tumour cell growth, NCI panel, 48 h

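Briefly, cells in 96-well plates were exposed to five compound concentrations for 48 h, and endpoints were estimated by linear interpolation. At the GI50, growth is halved.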 The source made the active and inactive calls. No stated cut-off is given here; in the data, active = GI50 up to about 1.1 µM and inactive = higher.

With `CCC1CN2CCc3cc(OC)c(OC)cc3C2CC1CC1c2cc(OC)c(OC)cc2CCN1C(=O)C(N)Cc1ccccc1.[O-][Cl+3]([O-])([O-])O` (stereo not drawn), the GI50 in the experiment with SK-OV-3 is 4.65 µM (inactive); in the experiment with SK-MEL-5, 2.12 µM (inactive); in the experiment on SF-268, 3.37 µM (inactive); with KM-20L2, 1.07 µM (active); in the experiment with TK-10, 2.75 µM (inactive); in the experiment with SK-MEL-2, 2.23 µM (inactive). Further, the GI50 in the experiment on XF498 was 1.34 µM (inactive); in the experiment on ACHN, 2.88 µM (inactive); in the experiment with RPMI-8226, 1.94 µM (inactive); with M14, 0.628 µM (active); with SR it was 0.423 µM (active); in the experiment on HOP-92, 1.19 µM (inactive).

Take `C=C1CC(OC)(C(OC)C(=O)N(C)[C@H]2OCO[C@H]3C2O[C@H](C[C@@H](COC)OC)C(C)(C)C3OC)O[C@H](C)[C@@H]1C` (stereo partly drawn): the GI50 with MCF7 was 5.3 µM (inactive); with SK-MEL-5, > 9.16 µM (inactive); in the experiment on SF-268, 4.6 µM (inactive); in the experiment with KM-20L2, 13.3 µM (inactive); with SNB-78 it was 12.2 µM (inactive); in the experiment with XF498, 7.91 µM (inactive). The GI50 was 7.91 µM (inactive) with NCI/ADR-RES, 11.2 µM (inactive) in the experiment on DMS-114, 17.2 µM (inactive) in the experiment with RPMI-8226 and 25.5 µM (inactive) in the experiment on HOP-18.

For the molecule `O=S(=O)(CCBr)CCBr`, the GI50 was 2.83 µM (inactive) in the experiment on M19-MEL; 4.91 µM (inactive) with MCF7; 19.3 µM (inactive) with SK-OV-3; 7.35 µM (inactive) with SK-MEL-5; 3.99 µM (inactive) in the experiment with SF-268; 11.1 µM (inactive) in the experiment with KM-20L2. In addition, the GI50 is 11.3 µM (inactive) in the experiment on SK-MEL-2; < 0.01 µM (active) in the experiment on XF498; 2.17 µM (inactive) in the experiment on NCI/ADR-RES; 2.18 µM (inactive) in the experiment on DMS-114; 4.53 µM (inactive) in the experiment with RPMI-8226; 15 µM (inactive) with HOP-18. The GI50 with HOP-92 is 6.21 µM (inactive).

Regarding `C[n+]1ccc(Nc2ccc(NC(=O)c3ccc(Nc4cc[n+](C)c5ccc([N+](=O)[O-])cc45)cc3[N+](=O)[O-])cc2)cc1`, the GI50 is 20 µM (inactive) with M19-MEL; 60.3 µM (inactive) in the experiment with SK-OV-3; 24.1 µM (inactive) with SK-MEL-5; 40.6 µM (inactive) with SF-268; 48.8 µM (inactive) with SK-MEL-2; > 41.3 µM (inactive) in the experiment with XF498. Moreover, the GI50 in the experiment with NCI/ADR-RES was > 85.7 µM (inactive); in the experiment on DMS-114, 1.05 µM (active); with RPMI-8226, 24 µM (inactive); in the experiment on HOP-18, 20.3 µM (inactive); in the experiment on HOP-92 it was 22.8 µM (inactive).

`CC(=O)N1C(=O)/C(=C\C(=O)c2ccc(Cl)cc2)c2ccccc21`: the GI50 in the experiment with DU-145 is 17.1 µM (inactive); in the experiment with MCF7, 21 µM (inactive); in the experiment on SK-OV-3 it was 22.8 µM (inactive); in the experiment on SK-MEL-5, 19.2 µM (inactive); in the experiment with SF-268 it was 18 µM (inactive); in the experiment on 786-0, 4.27 µM (inactive). In addition, the GI50 in the experiment on TK-10 is 15.6 µM (inactive); in the experiment with SK-MEL-2, 18.5 µM (inactive); in the experiment on ACHN, 9.31 µM (inactive); in the experiment on NCI/ADR-RES, 20.6 µM (inactive); in the experiment on RPMI-8226, 24.4 µM (inactive); in the experiment on M14, 16.5 µM (inactive). The GI50 is 2.48 µM (inactive) in the experiment on SR and 18.3 µM (inactive) with HOP-92.

For the molecule `CO/N=C1/c2sccc2[C@H](NC(=O)C(Cc2ccccc2)NC(=O)OC(C)(C)C)[C@@H]1O` (stereo partly drawn), the GI50 in the experiment with DU-145, in the experiment with MCF7, with SK-OV-3, in the experiment with SK-MEL-5, in the experiment with SF-268 and with TK-10 was > 100 µM (inactive) throughout. Besides, the GI50 in the experiment with SK-MEL-2 was > 100 µM (inactive); in the experiment on NCI/ADR-RES, > 100 µM (inactive); in the experiment on M14, > 100 µM (inactive); in the experiment with SR it was 49.5 µM (inactive); with HOP-92 it was > 100 µM (inactive).

Take `CNC(=S)N/N=C(/C)CCC/C(C)=N/NC(=S)NC`: the GI50 was > 68.5 µM (inactive) in the experiment on DU-145; 0.151 µM (active) with MCF7; > 100 µM (inactive) in the experiment on SK-OV-3; 16.4 µM (inactive) with SK-MEL-5; > 35.2 µM (inactive) with SF-268; > 100 µM (inactive) in the experiment on TK-10. Besides, the GI50 in the experiment with SK-MEL-2 was > 100 µM (inactive); with ACHN it was > 80.7 µM (inactive); with NCI/ADR-RES, > 100 µM (inactive); in the experiment on RPMI-8226, 5.61 µM (inactive); in the experiment on M14, > 100 µM (inactive); with SR, 3.89 µM (inactive). In addition, the GI50 in the experiment with HOP-92 is > 100 µM (inactive).

Regarding `CC(=O)C(=O)NC1/C=C(C)\C=C/C(O)C/C=C(C)\C=C/C(O)CC2OC(=O)C1(C)C(=O)C2C` (stereo not drawn), the GI50 in the experiment with M19-MEL, in the experiment with MCF7, with SK-OV-3, with SK-MEL-5, in the experiment on SF-268 and with KM-20L2 was > 100 µM (inactive) each time. Also, the GI50 is > 100 µM (inactive) in the experiment on SK-MEL-2; > 100 µM (inactive) with SNB-78; > 100 µM (inactive) with NCI/ADR-RES; > 100 µM (inactive) in the experiment on DMS-114; > 55.1 µM (inactive) with RPMI-8226; > 100 µM (inactive) with HOP-18. For the same molecule, the GI50 with HOP-92 is > 100 µM (inactive).

`CCCCN(CCCC)C(=O)C(=O)C(C(=O)C(=O)OC)c1nc2ccccc2o1` (stereo not drawn): the GI50 in the experiment on M19-MEL is > 100 µM (inactive); with SK-OV-3, > 100 µM (inactive); in the experiment with SK-MEL-5, 62.7 µM (inactive); with SF-268, > 100 µM (inactive); in the experiment with 786-0 it was > 100 µM (inactive); with TK-10, > 100 µM (inactive). In addition, the GI50 was > 100 µM (inactive) with SK-MEL-2; > 100 µM (inactive) in the experiment with SNB-78; 64.3 µM (inactive) with XF498; > 100 µM (inactive) with ACHN; 54 µM (inactive) in the experiment with DMS-114; > 100 µM (inactive) with M14. Moreover, the results for the GI50 in the experiment with HOP-18, in the experiment on SR and in the experiment on HOP-92 were > 100 µM (inactive), 48.8 µM (inactive) and > 100 µM (inactive), respectively.

`CC1(C)O[C@H]2OC(CO)C(OS(C)(=O)=O)[C@H]2O1` (stereo partly drawn): the GI50 in the experiment with DU-145, in the experiment with MCF7, with SK-MEL-5, with SF-268, in the experiment with 786-0 and with TK-10 was > 100 µM (inactive) throughout. Moreover, the GI50 in the experiment on SK-MEL-2, in the experiment with ACHN, with NCI/ADR-RES, with RPMI-8226, in the experiment with M14 and with HOP-92 was > 100 µM (inactive) in each case.

For `CN(C)CCCNC(=O)c1c(-c2cccnc2)cnc2ccccc12`, the GI50 was > 100 µM (inactive) with DU-145; > 100 µM (inactive) in the experiment on MCF7; > 100 µM (inactive) in the experiment on SK-OV-3; 61.9 µM (inactive) in the experiment on SK-MEL-5; > 100 µM (inactive) in the experiment with SF-268; > 100 µM (inactive) in the experiment on 786-0. For the same molecule, the GI50 in the experiment with TK-10, in the experiment with SK-MEL-2, in the experiment with ACHN, in the experiment on NCI/ADR-RES, in the experiment with RPMI-8226 and with M14 was > 100 µM (inactive) throughout. Also, the GI50 with SR and with HOP-92 was > 100 µM (inactive) each time.
